Molecules are shown by their SMILES. Like-named read-outs stand apart in the source and are kept apart here.

The target in test [1] is T1, recombinant human Wee1A kinase (Homo sapiens, UniProt P30291).
T1 construct: full length Wee1 kinase was expressed by baculovirus in insect cells; purchased Invitrogen PV3817; host or cells: insect cells (baculovirus)
Briefly: Wee1A kinase binding assay (LanthaScreen Eu time-resolved FRET). Put shortly: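 Full-length, baculovirus-expressed GST-tagged Wee1A (5 nM) was mixed with 2 nM Eu-anti-GST antibody, 30 nM kinase tracer 178 and compound (1% DMSO). Buffer was 50 mM HEPES pH 7.5, 10 mM MgCl2, 1 mM EGTA, 0.01% Brij-35, incubated 60 min at room temperature. TR-FRET 665/615 nm emission ratios from duplicates were curve-fitted.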

Test [2] has as its target T2, Myt1 kinase (recombinant PMYT-1) (Homo sapiens, UniProt Q99640).
T2 construct: full length PMYT-1 was expressed by baculovirus in insect cells; purchased Invitrogen A30984; host or cells: insect cells (baculovirus)
T2 sequence (Q99640 1-499): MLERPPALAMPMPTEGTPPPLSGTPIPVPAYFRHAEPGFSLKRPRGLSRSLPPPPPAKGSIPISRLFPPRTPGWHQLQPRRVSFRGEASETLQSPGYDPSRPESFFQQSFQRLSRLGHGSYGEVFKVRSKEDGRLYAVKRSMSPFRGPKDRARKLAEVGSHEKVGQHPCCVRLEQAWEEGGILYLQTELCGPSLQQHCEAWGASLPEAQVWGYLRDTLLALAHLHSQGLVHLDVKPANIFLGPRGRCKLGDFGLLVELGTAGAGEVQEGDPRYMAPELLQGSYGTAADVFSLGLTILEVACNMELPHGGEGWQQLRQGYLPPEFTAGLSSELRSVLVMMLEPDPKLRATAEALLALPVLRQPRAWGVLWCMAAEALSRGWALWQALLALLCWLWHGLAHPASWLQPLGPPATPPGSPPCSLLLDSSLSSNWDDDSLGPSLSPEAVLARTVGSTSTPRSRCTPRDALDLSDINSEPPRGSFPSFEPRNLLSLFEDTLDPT
Briefly: Myt1 kinase binding assay (LanthaScreen Eu Kinase Binding Assay). Put shortly:
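The binding affinity of compounds for Myt1 kinase was measured with a LanthaScreen Europium (Eu) Kinase Binding Assay, a time-resolved FRET format in which test compounds compete against a labeled kinase tracer, and the results were expressed as IC50 values describing compound binding to Myt1.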

The target of test [3] is T3, Wee1A kinase (CDK1 Tyr15 phosphorylation in ACHN renal cell carcinoma cells) (Homo sapiens, UniProt P30291).
T3 construct: pCDK1 Tyr15 immunofluorescence read-out
T3 sequence (P30291 whole entry): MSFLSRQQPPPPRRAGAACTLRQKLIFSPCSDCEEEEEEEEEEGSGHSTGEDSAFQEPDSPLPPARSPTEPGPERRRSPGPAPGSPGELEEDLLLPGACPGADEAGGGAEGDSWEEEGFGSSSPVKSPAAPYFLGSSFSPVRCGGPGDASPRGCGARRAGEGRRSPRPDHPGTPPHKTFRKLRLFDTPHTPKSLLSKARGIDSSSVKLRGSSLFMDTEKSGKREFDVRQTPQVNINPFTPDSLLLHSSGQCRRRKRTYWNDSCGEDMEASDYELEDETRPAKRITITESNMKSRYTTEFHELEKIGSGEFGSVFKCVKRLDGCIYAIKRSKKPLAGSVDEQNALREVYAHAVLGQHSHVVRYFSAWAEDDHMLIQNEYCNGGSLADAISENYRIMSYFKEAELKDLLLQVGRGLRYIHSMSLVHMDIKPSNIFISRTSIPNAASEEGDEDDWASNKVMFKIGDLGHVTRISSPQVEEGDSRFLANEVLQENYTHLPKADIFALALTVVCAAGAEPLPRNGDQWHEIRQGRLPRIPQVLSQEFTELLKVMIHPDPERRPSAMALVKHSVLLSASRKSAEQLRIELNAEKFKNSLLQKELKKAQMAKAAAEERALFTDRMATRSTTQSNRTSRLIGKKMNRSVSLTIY
Put plainly: High-content imaging of pCdk1 Y15, Wee1A kinase target engagement in ACHN cells. Format: cell-based. Put shortly: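 ACHN cells exposed to compound for 4 h over 7–5,000 nM or 0.3–200 nM, then fixed and immunostained for pCDK1 Y15 with DAPI nuclear counterstain. The percentage of pCdk1 Y15 nucleus-positive cells relative to DMSO control was imaged per well; EC50 from dose-response curves.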

Setting [4] is: 30 nM tracer 178, 5 nM Wee1A kinase, 2 nM Eu-labeled antibody, 60 minutes at room temperature, read-out: Wee1A kinase Binding IC50.
Where [5] appears, read: 3 nM tracer 178, 2.5 nM PMYT-1, 1 nM Eu-labeled antibody, read-out: Myt1 kinase Binding IC50.
Where [6] appears, read: 4 h treatment, nuclear positivity for pCdk1 Y15 vs DMSO control, read-out: CDK1 Tyr15 Phosphorylation EC50.
[7] abbreviates: Myt1 kinase Binding IC50, 3 nM tracer 178, 2.5 nM PMYT-1, 1 nM Eu-labeled antibody.
Setting [8] is: read-out: CDK1 Tyr15 Phosphorylation EC50, 4 h treatment, nuclear positivity for pCdk1 Y15 vs DMSO control.

T1 sequence (P30291 whole entry): as above

Turning to `C=CCn1c(=O)c2cnc(Nc3ccc4c(cnn4C)c3)nc2n1-c1cccc(OC2CCCNCC2)n1` (single isomer, unassigned) [Compound 357], the IC50 is < 10 nM in test [1] (setting [4]) and 20 to 100 nM in test [2] (setting [5]). In addition, the EC50 in test [3] (setting [6]) was < 100 nM.

Consider `CCCn1c(=O)c2cnc(Nc3ccc4c(cnn4C)c3)nc2n1-c1cccc(OC2CCN(C)CC2)n1` [Compound 111, 6-[(1-methyl-1H-indazol-5-yl)amino]-1-{6-[(1-methylpiperidin-4-yl)oxy]pyridin-2-yl}-2-propyl-1H,2H,3H-pyrazolo[3,4-d]pyrimidin-3-one], for which the IC50 in test [1] (setting [4]) is < 10 nM; in test [2] (setting [5]) it was 20 to 100 nM. In test [3] (setting [6]), the EC50 was < 100 nM.

Regarding `C=CCn1c(=O)c2cnc(Nc3ccc(F)c(C)c3)nc2n1-c1cccc(NC2CCNCC2)n1` [Compound 128, 2-allyl-6-(4-fluoro-3-toluidino)-1-[6-(4-piperidylamino)-2-pyridyl]-1,2-dihydro-3H-1,2,5,7-tetraazainden-3-one], the figures for the IC50 in test [1] (setting [4]) and in test [2] (setting [5]) were < 10 nM and 100 to 500 nM, respectively. Further, the EC50 in test [3] (setting [6]) lay within 100 to 500 nM.

`C=CCn1c(=O)c2cnc(Nc3cnn(CC(C)C)c3)nc2n1-c1cccc(N(C)C2CCNCC2)n1` [Compound 170, 1-{6-[methyl(piperidin-4-yl)amino]pyridin-2-yl}-6-{[1-(2-methylpropyl)-1H-pyrazol-4-yl]amino}-2-(prop-2-en-1-yl)-1H,2H,3H-pyrazolo[3,4-d]pyrimidin-3-one]: the IC50 in test [1] was < 10 nM; in test [2] (setting [7]), > 500 nM. The EC50 in test [3] (setting [8]) was > 1000 nM.

Turning to `C=CCn1c(=O)c2cnc(Nc3cnn(C)c3)nc2n1-c1cccc(O[C@@H]2C[C@H]3CC[C@@H](C2)N3C)n1` [Compound 189, 6-[(1-methyl-1H-pyrazol-4-yl)amino]-1-(6-{[(cis)-8-methyl-8-azabicyclo[3.2.1]octan-3-yl]oxy}pyridin-2-yl)-2-(prop-2-en-1-yl)-1H,2H,3H-pyrazolo[3,4-d]pyrimidin-3-one], the IC50 is < 10 nM in test [1] and > 500 nM in test [2] (setting [7]). In test [3] (setting [8]), the EC50 lay in the range of 500 to 1000 nM.

Regarding `C=CCn1c(=O)c2cnc(Nc3ccc(F)cc3)nc2n1-c1cccc(OC2CCCNCC2)n1` (single isomer, unassigned) [Compound 344], the IC50 was < 10 nM in test [1] (setting [4]) and > 500 nM in test [2] (setting [5]). For the same compound, the EC50 in test [3] (setting [6]) was 100 to 500 nM.

In the case of `C=CCn1c(=O)c2cnc(Nc3cccc(-c4cccnc4)c3)nc2n1-c1cccc(OC2CCN(C)CC2)n1` [Compound 368, 2-allyl-1-[6-(1-methyl-4-piperidyloxy)-2-pyridyl]-6-[m-(3-pyridyl)phenylamino]-1,2-dihydro-3H-1,2,5,7-tetraazainden-3-one], the IC50 in test [1] (setting [4]) is < 10 nM; in test [2] (setting [5]), 20 to 100 nM. The EC50 in test [3] (setting [6]) was in the range of 100 to 500 nM.

For `C=CCn1c(=O)c2cnc(Nc3ccc4c(cnn4C)c3)nc2n1-c1cccc(O[C@@H]2CCNC2)n1` [Compound 101, 1-{6-[(R)-3-pyrrolidinyloxy]-2-pyridyl}-2-allyl-6-(1-methyl-1H-indazol-5-ylamino)-1,2-dihydro-3H-1,2,5,7-tetraazainden-3-one], the IC50 is < 10 nM in test [1] (setting [4]) and 100 to 500 nM in test [2] (setting [5]). Also, the EC50 in test [3] (setting [6]) fell in the range of 100 to 500 nM.

On to `CCn1c(=O)c2cnc(Nc3ccc(Br)cc3)nc2n1-c1cccc(OC2CCN(C)CC2)n1` [Compound 268, 6-(p-bromophenylamino)-2-ethyl-1-[6-(1-methyl-4-piperidyloxy)-2-pyridyl]-1,2-dihydro-3H-1,2,5,7-tetraazainden-3-one], for which the IC50 in test [1] (setting [4]) is < 10 nM; in test [2] (setting [5]), < 20 nM. Also, the EC50 in test [3] (setting [6]) is 100 to 500 nM.

Turning to `C=CCn1c(=O)c2cnc(Nc3cnc4c(cnn4C(C)C)c3)nc2n1-c1cccc(OC2CCNCC2)n1` [Compound 407, 2-allyl-6-((1-isopropyl-1H-pyrazolo[3,4-b]pyridin-5-yl)amino)-1-(6-(piperidin-4-yloxy)pyridin-2-yl)-1,2-dihydro-3H-pyrazolo[3,4-d]pyrimidin-3-one], the IC50 in test [1] (setting [4]) was < 10 nM; in test [2] (setting [5]) it was < 20 nM. In test [3] (setting [6]), the EC50 was < 100 nM.

On to `CCCn1c(=O)c2cnc(Nc3ccc4c(cnn4C)c3)nc2n1-c1cccc(OC2CCNCC2)n1` [Compound 110, 6-[(1-methyl-1H-indazol-5-yl)amino]-1-[6-(piperidin-4-yloxy)pyridin-2-yl]-2-propyl-1H,2H,3H-pyrazolo[3,4-d]pyrimidin-3-one], for which the concentration for half-maximal inhibition (IC50) in test [1] (setting [4]) was < 10 nM; in test [2] (setting [5]), 20 to 100 nM. Moreover, in test [3] (setting [6]), the EC50 is 100 to 500 nM.

On to `C=CCn1c(=O)c2cnc(Nc3ccc(F)cc3)nc2n1-c1ccnc(OC2CCNCC2)n1` [Compound 247, 2-allyl-6-((4-fluorophenyl)amino)-1-(2-((piperidin-4-yl)oxy)pyrimidin-4-yl)-1,2-dihydro-3H-pyrazolo[3,4-d]pyrimidin-3-one], for which the figures for the IC50 in test [1] (setting [4]) and in test [2] (setting [5]) were < 10 nM and < 20 nM, respectively. In test [3] (setting [6]), the EC50 lay in the range of 100 to 500 nM.

Take `C=CCn1c(=O)c2cnc(Nc3ccc4nc(C)sc4c3)nc2n1-c1cccc(OC2CCNCC2)n1` [Compound 264, 2-allyl-6-(2-methyl-1,3-benzothiazol-6-ylamino)-1-[6-(4-piperidyloxy)-2-pyridyl]-1,2-dihydro-3H-1,2,5,7-tetraazainden-3-one]: the IC50 is < 10 nM in test [1] (setting [4]) and < 20 nM in test [2] (setting [5]). Moreover, in test [3] (setting [6]), the EC50 is < 100 nM.

For the compound `CCn1c(=O)c2cnc(Nc3ccc4c(ccn4C)c3)nc2n1-c1cccc(OC2CCNCC2)n1` [Compound 353, 2-ethyl-6-((1-methyl-1H-indol-5-yl)amino)-1-(6-(piperidin-4-yloxy)pyridin-2-yl)-1,2-dihydro-3H-pyrazolo[3,4-d]pyrimidin-3-one], the half-inhibitory concentration (IC50) in test [1] (setting [4]) was < 10 nM; in test [2] (setting [5]), 20 to 100 nM. Further, the EC50 in test [3] (setting [6]) is < 100 nM.

In the case of `C=CCn1c(=O)c2cnc(Nc3cnn(C)c3)nc2n1-c1cccc(N(C)C2CCNCC2)n1` [Compound 182, 1-{6-[methyl(piperidin-4-yl)amino]pyridin-2-yl}-6-[(1-methyl-1H-pyrazol-4-yl)amino]-2-(prop-2-en-1-yl)-1H,2H,3H-pyrazolo[3,4-d]pyrimidin-3-one], the half-maximal inhibitory concentration (IC50) is < 10 nM in test [1] and > 500 nM in test [2] (setting [7]). Also, in test [3] (setting [8]), the EC50 is > 1000 nM.

As to `C=CCn1c(=O)c2cnc(Nc3ccc(Cl)cc3)nc2n1-c1cccc(N[C@H]2CCCNC2)n1` [Compound 165, 1-{6-[(S)-3-piperidylamino]-2-pyridyl}-2-allyl-6-(p-chlorophenylamino)-1,2-dihydro-3H-1,2,5,7-tetraazainden-3-one], the IC50 was < 10 nM in test [1] (setting [4]) and 20 to 100 nM in test [2] (setting [5]). For the same compound, in test [3] (setting [6]), the EC50 lay within 500 to 1000 nM.

With `C=CCn1c(=O)c2cnc(Nc3cccc(-n4ccnc4)c3)nc2n1-c1cccc(OC2CCN(C)CC2)n1` [Compound 365, 2-allyl-6-[m-(1-imidazolyl)phenylamino]-1-[6-(1-methyl-4-piperidyloxy)-2-pyridyl]-1,2-dihydro-3H-1,2,5,7-tetraazainden-3-one], the concentration for half-maximal inhibition (IC50) in test [1] (setting [4]) was < 10 nM; in test [2] (setting [5]) it was 20 to 100 nM. Also, the EC50 in test [3] (setting [6]) was < 100 nM.

For `C=CCn1c(=O)c2cnc(Nc3ccc4c(cnn4C)c3)nc2n1-c1cccc(OC2CCNC(C)(C)C2)n1` (stereo not drawn) [Compound 337, 2-allyl-1-(6-((2,2-dimethylpiperidin-4-yl)oxy)pyridin-2-yl)-6-((1-methyl-1H-indazol-5-yl)amino)-1,2-dihydro-3H-pyrazolo[3,4-d]pyrimidin-3-one], the results for the IC50 in test [1] (setting [4]) and in test [2] (setting [5]) were < 10 nM and 100 to 500 nM, respectively. Moreover, in test [3] (setting [6]), the EC50 was < 100 nM.

Broadly, the IC50 is the midpoint of a concentration-inhibition curve. A word on the EC50: it is the concentration giving half of the maximal effect.
